Reference: US8809333B2, “Imidazole, pyrazole, and triazole derivatives useful as antibacterial agents” (Pfizer Inc., priority 2011, dated 2014)
Converted amounts (≈) assume the structure as drawn. Where two headings read alike, the source gives them in different places.

Legend:
[1] = test system: Escherichia coli EC-1: VOGEL, mouse virulent; assay: MIC determination (CLSI), EC-1; assay type: cell-based; settings: Escherichia coli, read-out: EC-1 (MIC)
Experimental: (§1) The in vitro antibacterial activity of compounds described in the Examples was evaluated by minimum inhibitory concentration (MIC) testing according to Clinical and Laboratory Standards Institute (CLSI) Guidelines. See: Clinical and Laboratory Standards Institute. Methods for Dilution Antimicrobial Susceptibility Tests for Bacteria that Grow Aerobically; Approved Standard-Eighth Edition. CLSI document M7-A8 [ISBN 1-56238-689-1]. Clinical and Laboratory Standards Institute, 940 West Valley Road, Suite 1400, Wayne, Pa. 19087-1898 USA, 2006; also Clinical and Laboratory Standards Institute. Performance Standards for Antimicrobial Susceptibility Testing; Twentieth Informational Supplement. CLSI document M100-S20 [ISBN1-56238-716-2]. Clinical and Laboratory Standards Institute.
(§2) The MIC determination is a standard laboratory method for evaluating the antibacterial activity of a compound. The MIC represents the lowest drug concentration that inhibits visible growth of bacteria following overnight incubation. […] Typically, the drug concentration range is broken down into 2-fold increments (e.g. 0.06 μg/mL, 0.12 μg/mL. 0.25 μg/mL, 0.50 μg/mL, 1.0 μg/mL, etc.) and the various drug concentrations are all individually incubated overnight with approximately the same number of bacteria. The MIC is then determined by visually inspecting the drug effect at each concentration, and identifying the lowest drug concentration that has inhibited bacterial growth as compared to the drug free control. Typically, bacteria continue to grow at drug concentrations lower than the MIC and don't grow at concentrations at and above the MIC.
(§3) The MIC values described in Tables 2 and 3 below were derived from assays wherein each test compound was evaluated in duplicate. In cases where the duplicate values varied by 0-2-fold, the lower of the two values was reported below. Generally speaking, if the duplicate values varied by more than 2-fold, the assay was considered non-valid and was repeated until the variation between duplicate runs was ≦2-fold. In line with the CLSI guidelines referred to above, both control organisms and reference compounds were utilized in each MIC assay to provide proper quality control. MIC values generated with these control organisms and reference compounds were required to fall within a defined range for the assay to be considered valid and be included herein. Those skilled in the art will recognize that MIC values can and do vary from experiment to experiment. Generally speaking, it should be recognized that MIC values often vary +/−2-fold from experiment to experiment. While a single MIC is reported for each compound and each microorganism, the reader should not conclude that each compound was only tested once. Several of the compounds were subjected to multiple tests. The data reported in Tables 2 and 3 is reflective of the compounds relative activity and different MICs may have been generated on these occasions in line with the guidelines described above.
(§4) The following bacterial strains were used in these MIC determinations:
(2) Escherichia coli EC-1: VOGEL, mouse virulent labeled as EC-1 in Table 5;

[2] = test system: Pseudomonas aeruginosa UI-18: Wild-type (PA-7); assay: MIC determination (CLSI), PA-7; assay type: cell-based; settings: read-out: PA-7 (MIC)
Experimental: as §1, §2, §3, §4
(4) Pseudomonas aeruginosa UI-18: Wild-type, labeled as PA-7 in Table 5;

[3] = test system: Acinetobacter baumannii/haemolyticus: Multidrug-resistant clinical isolate (AB-3167); assay: MIC determination (CLSI), AB-3167; assay type: cell-based; settings: read-out: AB-3167 (MIC)
Experimental: as §1, §2, §3, §4
(1) Acinetobacter baumannii/haemolyticus: Multidrug-resistant clinical isolate labeled as AB-3167 in Table 5;

[4] = test system: Klebsiella pneumoniae: Ciprofloxacin-resistant isolate, expresses ESBL, clinical isolate (KP-3700); assay: MIC determination (CLSI), KP-3700; assay type: cell-based; settings: overnight incubation, lower of duplicate values
Experimental: as §1, §2, §3, §4
(3) Klebsiella pneumoniae: Ciprofloxacin-resistant isolate, expresses extended-spectrum beta-lactamases (ESBL), clinical isolate, labeled as KP-3700 in Table 5.

[5] = molecular target: T1, Pseudomonas aeruginosa LpxC enzyme (Pseudomonas aeruginosa, UniProt P47205); assay: IC50 assay, LpxC enzyme from P. aeruginosa (BioTrove RapidFire mass spectrometry); assay type: biochemical
T1 construct: made in house; host or cells: E. coli
T1 sequence (P47205 1-303): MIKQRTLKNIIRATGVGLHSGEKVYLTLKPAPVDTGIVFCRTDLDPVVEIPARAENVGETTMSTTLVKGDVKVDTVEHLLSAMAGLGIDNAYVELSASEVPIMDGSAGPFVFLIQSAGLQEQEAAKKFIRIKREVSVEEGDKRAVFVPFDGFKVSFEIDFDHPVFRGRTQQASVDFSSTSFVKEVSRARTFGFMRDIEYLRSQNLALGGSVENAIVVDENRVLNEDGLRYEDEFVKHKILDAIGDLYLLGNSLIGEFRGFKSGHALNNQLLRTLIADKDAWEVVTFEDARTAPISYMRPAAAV
Experimental: In order to assess the compounds biological activity, selected in-vitro assays were conducted on selected compounds of Formula I. One of the assays measured the compounds ability to disrupt the synthesis of lipopolysaccharide, LPS, which is a component of the outer membrane of Gram-negative bacteria. Disruption of this synthesis is lethal to the bacteria. The assay determined the compound's ability to inhibit LpxC, which is the first enzyme in the biosynthetic pathway for LPS (measured as IC50). Additionally, MICs (minimal inhibitory concentrations) were determined for several bacteria. The specific protocols are described below:
A) IC50 Assay, LpxC Enzyme from P. Aeruginosa Labeled as PA LpxC Enzyme IC50):
At the end of 1 hour, 5 ul of 1 N HCl was added to stop the enzyme reaction, the plates were centrifuged, and then processed with the BioTrove Rapidfire HTMS Mass Spectrometry System. A no-enzyme control was used in calculating the IC50 values from the percent conversion values.

[6] = Pseudomonas aeruginosa UI-18 wild-type, overnight incubation, lower of duplicate values
[7] = Acinetobacter baumannii/haemolyticus multidrug-resistant clinical isolate, overnight incubation, lower of duplicate values
[8] = P. aeruginosa LpxC enzyme 0.1 nM, 25° C., 1 hour, pH 8.0, read-out: PA: IC50

Compound | MIC [1] [µg/mL] | MIC [2, 6] [µg/mL] | MIC [3, 7] [µg/mL] | KP-3700 (MIC) [4] [µg/mL] | IC50 [5, 8] [nM] | IC50 [5] [nM] | MIC ([2]; Pseudomonas aeruginosa) [µg/mL] | MIC ([3]; Acinetobacter baumannii) [µg/mL]
C[C@@](CCn1cc(C#Cc2cccc(C#N)c2)cn1)(C(=O)NO)S(C)(=O)=O [Example 11, (2R)-4-{4-[(3-cyanophenyl)ethynyl]-1H-pyrazol-1-yl}-N-hydroxy-2-methyl-2-(methylsulfonyl)butanamide] | 32 (≈ 82.8 µM) | 16 (≈ 41.4 µM) | > 64 | 64 | 12.1 | – | – | –
C[C@@](CCn1cc(-c2ccccc2)nn1)(C(=O)NO)S(C)(=O)=O [Example 14, (2R)—N-hydroxy-2-methyl-2-(methylsulfonyl)-4-(4-phenyl-1H-1,2,3-triazol-1-yl)butanamide] | 32 (≈ 94.6 µM) | 2 (≈ 5.91 µM) | > 64 | 32 | – | 0.85 | – | –
Cc1c(-c2ccccc2)nnn1CC[C@](C)(C(=O)NO)S(C)(=O)=O [Example 15, (2R)—N-hydroxy-2-methyl-4-(5-methyl-4-phenyl-1H-1,2,3-triazol-1-yl)-2-(methylsulfonyl)butanamide] | > 64 | 32 (≈ 90.8 µM) | > 64 | >64.0 | 21.3 | – | – | –
COc1ccc(-c2cn(CC[C@](C)(C(=O)NO)S(C)(=O)=O)nn2)c(Cl)c1 [Example 16, (2R)-4-[4-(2-chloro-4-methoxyphenyl)-1H-1,2,3-triazol-1-yl]-N-hydroxy-2-methyl-2-(methylsulfonyl)butanamide] | 8 (≈ 19.9 µM) | 8 (≈ 19.9 µM) | > 64 | 32 | – | 4.71 | – | –
C[C@@](CCn1cc(-c2cccc(F)c2F)nn1)(C(=O)NO)S(C)(=O)=O [Example 17, (2R)-4-[4-(2,3-difluorophenyl)-1H-1,2,3-triazol-1-yl]-N-hydroxy-2-methyl-2-(methylsulfonyl)butanamide] | 32 (≈ 85.5 µM) | 4 (≈ 10.7 µM) | > 64 | 64 | – | 8.08 | – | –
C[C@@](CCn1cc(-c2cccc(Cl)c2Cl)nn1)(C(=O)NO)S(C)(=O)=O [Example 19, (2R)-4-[4-(2,3-dichlorophenyl)-1H-1,2,3-triazol-1-yl]-N-hydroxy-2-methyl-2-(methylsulfonyl)butanamide] | 8 (≈ 19.6 µM) | – | – | 16 | – | 1.95 | 4 (≈ 9.82 µM) | > 64
C[C@@](CCn1cc(-c2ccc(F)c(F)c2)nn1)(C(=O)NO)S(C)(=O)=O [Example 20, (2R)-4-[4-(3,4-difluorophenyl)-1H-1,2,3-triazol-1-yl]-N-hydroxy-2-methyl-2-(methylsulfonyl)butanamide] | 32 (≈ 85.5 µM) | 4 (≈ 10.7 µM) | > 64 | >64.0 | – | 1.87 | – | –
C[C@@](CCn1cc(-c2ccc(Cl)c(Cl)c2)nn1)(C(=O)NO)S(C)(=O)=O [Example 21, (2R)-4-[4-(3,4-dichlorophenyl)-1H-1,2,3-triazol-1-yl]-N-hydroxy-2-methyl-2-(methylsulfonyl)butanamide] | 16 (≈ 39.3 µM) | – | – | 32 | – | 1.67 | 2 (≈ 4.91 µM) | > 64
C[C@@](CCn1cc(-c2ccc(Cl)c(F)c2)nn1)(C(=O)NO)S(C)(=O)=O [Example 23, (2R)-4-[4-(4-chloro-3-fluorophenyl)-1H-1,2,3-triazol-1-yl]-N-hydroxy-2-methyl-2-(methylsulfonyl)butanamide] | 8 (≈ 20.5 µM) | 2 (≈ 5.12 µM) | > 64 | 64 | – | 0.912 | – | –
C[C@@](CCn1cc(-c2ccc(Cl)cc2F)nn1)(C(=O)NO)S(C)(=O)=O [Example 24, (2R)-4-[4-(4-chloro-2-fluorophenyl)-1H-1,2,3-triazol-1-yl]-N-hydroxy-2-methyl-2-(methylsulfonyl)butanamide] | 2 (≈ 5.12 µM) | 1 (≈ 2.56 µM) | > 64 | 4 | – | 0.657 | – | –
CC(CCn1cc(-c2ccc(Cl)cc2)nn1)(C(=O)NO)S(C)(=O)=O (stereo not shown) [Example 26, 4-[4-(4-chlorophenyl)-1H-1,2,3-triazol-1-yl]-N-hydroxy-2-methyl-2-(methylsulfonyl)butanamide] | 32 (≈ 85.8 µM) | 4 (≈ 10.7 µM) | > 64 | 32 | 2.87 | – | – | –
CC(CCn1cc(CSc2cccc(Cl)c2)nn1)(C(=O)NO)S(C)(=O)=O (stereo not shown) [Example 27, 4-(4-{[(3-chlorophenyl)sulfanyl]methyl}-1H-1,2,3-triazol-1-yl)-N-hydroxy-2-methyl-2-(methylsulfonyl)butanamide] | > 64 | 64 (≈ 153 µM) | > 64 | >64.0 | 12.2 | – | – | –
CC(C)(C)c1ccccc1SCc1cn(CCC(C)(C(=O)NO)S(C)(=O)=O)nn1 (stereo not shown) [Example 28, 4-(4-{[(2-t-butylphenyl)sulfanyl]methyl}-1H-1,2,3-triazol-1-yl)-N-hydroxy-2-methyl-2-(methylsulfonyl)butanamide] | > 64 | > 64 | > 64 | >64.0 | 174 | – | – | –
CC(CCn1cc(CSc2ccc(Cl)cc2)nn1)(C(=O)NO)S(C)(=O)=O (stereo not shown) [Example 29, 4-(4-{[(4-chlorophenyl)sulfanyl]methyl}-1H-1,2,3-triazol-1-yl)-N-hydroxy-2-methyl-2-(methylsulfonyl)butanamide] | > 64 | 32 (≈ 76.4 µM) | > 64 | >64.0 | 8.82 | – | – | –
